Literature values in PMC6269737, “Effect of Honokiol on Cytochrome P450 and UDP-Glucuronosyltransferase Enzyme Activities in Human Liver Microsomes” (Molecules, 2013).

Experiments:
CYP2C8 = molecular target: T1, CYP2C8 (Homo sapiens, UniProt P10632); details: cited from earlier work
T1 sequence (P10632 1-490): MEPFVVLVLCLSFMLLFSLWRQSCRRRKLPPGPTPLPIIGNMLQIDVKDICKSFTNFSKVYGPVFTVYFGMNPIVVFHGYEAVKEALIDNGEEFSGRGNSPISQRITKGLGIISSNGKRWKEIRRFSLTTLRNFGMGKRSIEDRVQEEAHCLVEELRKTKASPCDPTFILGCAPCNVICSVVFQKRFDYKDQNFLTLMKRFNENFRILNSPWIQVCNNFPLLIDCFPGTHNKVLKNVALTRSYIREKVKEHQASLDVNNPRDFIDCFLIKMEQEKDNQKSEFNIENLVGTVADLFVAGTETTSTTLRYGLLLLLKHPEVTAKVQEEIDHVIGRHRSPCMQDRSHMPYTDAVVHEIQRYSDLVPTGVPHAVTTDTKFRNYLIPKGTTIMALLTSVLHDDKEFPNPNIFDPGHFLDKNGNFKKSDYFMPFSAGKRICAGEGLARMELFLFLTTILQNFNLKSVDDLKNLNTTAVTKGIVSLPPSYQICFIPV

UGT1A9 = molecular target: T2, UGT1A9 (Homo sapiens, UniProt O60656); parameters: method as in PMID 21245288; details: selective UGT1A9 inhibitor; cited from earlier work
T2 sequence (O60656 26-530): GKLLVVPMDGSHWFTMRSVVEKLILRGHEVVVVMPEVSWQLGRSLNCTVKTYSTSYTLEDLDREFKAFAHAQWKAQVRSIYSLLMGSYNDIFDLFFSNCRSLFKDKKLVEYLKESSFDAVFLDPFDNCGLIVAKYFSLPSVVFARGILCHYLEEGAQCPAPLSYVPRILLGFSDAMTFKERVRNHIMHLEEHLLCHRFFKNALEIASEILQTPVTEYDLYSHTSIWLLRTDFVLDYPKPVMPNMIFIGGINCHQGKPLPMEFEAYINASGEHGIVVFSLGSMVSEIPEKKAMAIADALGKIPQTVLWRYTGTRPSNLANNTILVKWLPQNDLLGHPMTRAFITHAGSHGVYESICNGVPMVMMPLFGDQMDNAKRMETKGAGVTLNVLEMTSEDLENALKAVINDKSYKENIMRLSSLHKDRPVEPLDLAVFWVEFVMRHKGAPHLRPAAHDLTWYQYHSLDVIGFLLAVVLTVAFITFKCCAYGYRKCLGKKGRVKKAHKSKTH

CYP2B6 = molecular target: T3, CYP2B6 (Homo sapiens, UniProt P20813); parameters: method as in PMID 23446989; details: inhibitory effect towards CYP2B6; cited from earlier work
T3 sequence (P20813 1-491): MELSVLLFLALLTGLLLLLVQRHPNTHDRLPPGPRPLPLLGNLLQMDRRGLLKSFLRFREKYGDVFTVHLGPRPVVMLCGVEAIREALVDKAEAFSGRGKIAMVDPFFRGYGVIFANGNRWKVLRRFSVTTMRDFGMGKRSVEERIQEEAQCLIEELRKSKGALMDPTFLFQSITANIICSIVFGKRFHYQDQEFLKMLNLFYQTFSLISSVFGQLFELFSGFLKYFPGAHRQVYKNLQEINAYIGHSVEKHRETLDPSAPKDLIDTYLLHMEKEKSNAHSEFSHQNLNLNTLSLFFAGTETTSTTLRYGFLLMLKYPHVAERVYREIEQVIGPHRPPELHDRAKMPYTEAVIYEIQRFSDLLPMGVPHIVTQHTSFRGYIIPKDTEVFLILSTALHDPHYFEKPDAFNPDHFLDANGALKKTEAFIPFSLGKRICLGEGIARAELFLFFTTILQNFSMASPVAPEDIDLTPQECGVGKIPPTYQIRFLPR

CYP1A2 = molecular target: T4, CYP1A2 (Homo sapiens, UniProt P05177); parameters: method as in PMID 23446989; details: inhibitory effect towards CYP1A2; cited from earlier work
T4 sequence (P05177 1-516): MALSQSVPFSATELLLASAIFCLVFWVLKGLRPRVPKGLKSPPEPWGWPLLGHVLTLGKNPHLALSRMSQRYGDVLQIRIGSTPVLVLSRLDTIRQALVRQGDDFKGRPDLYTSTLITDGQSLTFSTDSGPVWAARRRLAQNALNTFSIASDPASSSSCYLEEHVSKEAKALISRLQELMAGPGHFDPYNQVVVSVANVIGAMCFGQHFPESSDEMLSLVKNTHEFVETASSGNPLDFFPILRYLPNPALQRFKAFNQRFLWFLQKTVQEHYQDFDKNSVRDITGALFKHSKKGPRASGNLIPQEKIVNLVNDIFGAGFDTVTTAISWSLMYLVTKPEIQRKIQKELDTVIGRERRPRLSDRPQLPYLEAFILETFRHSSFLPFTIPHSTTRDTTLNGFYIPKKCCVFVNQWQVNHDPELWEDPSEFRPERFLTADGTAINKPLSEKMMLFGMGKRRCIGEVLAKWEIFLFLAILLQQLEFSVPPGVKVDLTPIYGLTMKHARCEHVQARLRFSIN

CYP2C19 = CYP2C19 (Homo sapiens, UniProt P33261); parameters: method as in PMID 23446989; details: inhibitory effect towards CYP2C19; cited from earlier work
Sequence of CYP2C19 (P33261 whole entry): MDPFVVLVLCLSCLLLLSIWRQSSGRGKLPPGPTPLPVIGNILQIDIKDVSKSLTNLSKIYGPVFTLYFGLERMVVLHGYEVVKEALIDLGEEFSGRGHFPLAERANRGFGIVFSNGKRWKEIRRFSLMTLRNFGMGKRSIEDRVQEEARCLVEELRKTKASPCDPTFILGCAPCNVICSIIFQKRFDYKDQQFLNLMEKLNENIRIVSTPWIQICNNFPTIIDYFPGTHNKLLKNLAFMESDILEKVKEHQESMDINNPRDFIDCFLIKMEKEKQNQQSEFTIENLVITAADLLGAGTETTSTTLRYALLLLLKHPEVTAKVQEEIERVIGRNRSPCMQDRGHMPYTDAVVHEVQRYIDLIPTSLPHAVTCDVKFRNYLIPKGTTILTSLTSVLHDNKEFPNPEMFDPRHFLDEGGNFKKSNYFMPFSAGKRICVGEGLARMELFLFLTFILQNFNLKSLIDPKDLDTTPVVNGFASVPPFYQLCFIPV

CYP2C9 = CYP2C9 (Homo sapiens, UniProt P11712); details: inhibitory effect towards CYP2C9; cited from earlier work
Sequence of CYP2C9 (P11712 whole entry): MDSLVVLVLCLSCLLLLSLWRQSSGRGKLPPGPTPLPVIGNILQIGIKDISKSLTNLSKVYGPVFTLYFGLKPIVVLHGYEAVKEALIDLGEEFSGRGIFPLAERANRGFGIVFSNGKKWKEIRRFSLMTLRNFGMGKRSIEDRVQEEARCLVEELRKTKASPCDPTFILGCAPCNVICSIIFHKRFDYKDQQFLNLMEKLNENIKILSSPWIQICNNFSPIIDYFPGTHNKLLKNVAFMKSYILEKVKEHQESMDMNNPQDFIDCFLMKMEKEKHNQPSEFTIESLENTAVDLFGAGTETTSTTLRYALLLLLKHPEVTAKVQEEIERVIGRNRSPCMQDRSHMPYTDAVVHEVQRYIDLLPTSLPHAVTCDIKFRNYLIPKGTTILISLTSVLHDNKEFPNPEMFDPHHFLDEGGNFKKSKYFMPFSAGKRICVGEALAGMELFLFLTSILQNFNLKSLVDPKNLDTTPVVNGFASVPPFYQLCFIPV

SMILES: Cc1ccc(C)c(OCCCC(C)(C)C(=O)O[C@@H]2O[C@H](C(=O)O)[C@@H](O)[C@H](O)[C@H]2O)c1 [gemfibrozil glucuronide]
- Ki (CYP2C8; selective CYP2C8 inhibitor): 20 to 52 µM

SMILES: O=C(O)c1cccnc1Nc1cccc(C(F)(F)F)c1 [niflumic acid]
- Ki (UGT1A9): 0.1 to 0.4 µM

SMILES: C=CCc1ccc(Oc2cc(CC=C)cc(O)c2O)cc1 [obovatol]
- IC50 (CYP2B6): 13.9 µM
- IC50 (CYP1A2): 4.4 µM
- IC50 (CYP2C19): 0.8 µM
- IC50 (CYP2C8; inhibitory effect towards CYP2C8): 11.1 µM
- IC50 (CYP2C9): 3.3 µM
